According to the supplement of paper PMC10307832:

These cell lines were tested with C1CCC(CC1)N(CCNCCC2=C3C(=C(C=C2)O)NC(=O)CO3)C(=O)CCNCCC4=CC(=C(C=C4)Cl)Cl [AZ505] + O=C(CCCCCCC(=O)Nc1ccccc1)NO [Vorinostat] (partner 1 µM) (assay: relative viability (nuclei count vs DMSO), 5 days (fraction); higher = more cells survive). Conditions: first compound 8 µM.
How it was run: (§1)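 Values are medians from duplicate plates. Each reflects relative viability, defined as the nuclei count of treated wells over that of vehicle wells. Lung cancer cell lines in 1536-well plates were pin-tool dosed one day after seeding with one drug alone or with a fixed anchor-drug dose plus five library-drug doses (not always all listed) in √10 steps, then fixed, stained and imaged at 4× after 5 days.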

Row | Cell Line | relative viability
1 | NCI-H2023 | 0.835
2 | HCC-15 | 0.824
3 | NCI-H1793 | 0.806
4 | PC-14 | 0.761
5 | EKVX | 0.899

The cell lines below were run with C1CCC(CC1)N(CCNCCC2=C3C(=C(C=C2)O)NC(=O)CO3)C(=O)CCNCCC4=CC(=C(C=C4)Cl)Cl [AZ505] + CCNC(=O)c1noc(-c2cc(C(C)C)c(O)cc2O)c1-c1ccc(CN2CCOCC2)cc1 [Luminespib] (partner 0.01 µM) in the same assay as above. Conditions: first compound 0.08 µM.
How it was run: as §1

Row | Cell Line | relative viability
6 | HARA | 0.622
7 | SW 900 | 0.193
8 | NCI-H322M | 0.931
9 | LCLC-97TM1 | 0.774
10 | NCI-H2009 | 0.847
11 | A-427 | 0.708
12 | NCI-H441 | 0.248
13 | NCI-H661 | 0.879
14 | NCI-H1734 | 0.234
15 | NCI-H460 | 0.0296
16 | NCI-H2347 | 0.32
17 | SW 1573 | 0.165
18 | NCI-H1395 | 0.618
19 | 201T | 1.01
20 | NCI-H1915 | 0.769
21 | HCC-827 | 0.731

Row | Cell Line | relative viability
22 | LXF-289 | 0.663
23 | NCI-H23 | 0.214
24 | NCI-H647 | 0.122
25 | CAL-12T | 0.341
26 | NCI-H1651 | 0.78
27 | NCI-H2228 | 0.114
28 | NCI-H1355 | 0.672
29 | NCI-H3122 | 0.0979
30 | NCI-H1437 | 1.04
31 | NCI-H1755 | 0.505
32 | NCI-H2023 | 0.727
33 | HCC-15 | 0.264
34 | NCI-H1793 | 0.199
35 | PC-14 | 0.135
36 | EKVX | 0.873

Same assay, conditions: first compound 0.253 µM

Row | Cell Line | relative viability
37 | HARA | 0.32
38 | SW 900 | 0.183
39 | NCI-H322M | 0.84
40 | LCLC-97TM1 | 0.853
41 | NCI-H2009 | 1.08
42 | A-427 | 1.02
43 | NCI-H441 | 0.388
44 | NCI-H661 | 0.928
45 | NCI-H1734 | 0.197
46 | NCI-H460 | 0.0436
47 | SW 1573 | 0.257
48 | NCI-H1395 | 0.752
49 | 201T | 1.05
50 | NCI-H1915 | 0.928
51 | HCC-827 | 1.03
52 | LXF-289 | 0.685
53 | NCI-H647 | 0.221
54 | CAL-12T | 0.596
55 | NCI-H1651 | 0.881
56 | EPLC-272H | 0.161
57 | NCI-H2228 | 0.182
58 | NCI-H1355 | 0.701
59 | NCI-H3122 | 0.0993
60 | NCI-H1437 | 1.15
61 | NCI-H1755 | 0.589
62 | NCI-H2023 | 0.873
63 | HCC-15 | 0.323
64 | NCI-H1793 | 0.173
65 | PC-14 | 0.215
66 | EKVX | 0.615

Same assay, conditions: first compound 0.8 µM

Row | Cell Line | relative viability
67 | HARA | 0.444
68 | SW 900 | 0.137
69 | NCI-H322M | 0.798
70 | LCLC-97TM1 | 0.836
71 | NCI-H2009 | 1.02
72 | A-427 | 0.789
73 | NCI-H441 | 0.313
74 | NCI-H661 | 0.909
75 | NCI-H1734 | 0.221
76 | NCI-H460 | 0.0262
77 | SW 1573 | 0.427
78 | NCI-H1395 | 0.693
